According to article PMC5522078, “Discovery and characterization of small molecules targeting the DNA-binding ETS domain of ERG in prostate cancer” (Oncotarget, 2017):

Tests used:
PNT1B-MOCK cells = assay: pETS-luc luciferase assay in PNT1B-MOCK cells (non-specific effect); type: cell-based, human; conditions: increasing concentrations, 48 h; compared to PNT1B-ERG cells
Protocol: (§1) All of the compounds selected from the virtual screening were tested in a luciferase-based ERG-responsive reporter assay, using two ERG-overexpressing cell lines, VCaP and PNT1B-ERG, previously developed in house. […] Data were normalized first to Renilla luciferase and then to the DMSO-media control on each plate, unless otherwise stated. Initial hit compounds were identified as those with an average normalized luciferase reading (firefly luciferase/Renilla luciferase readings) that is 60% or less of the average normalized luciferase reading of the DMSO-media control (i.e. 40% or more reduction of luciferase activity) at 10 μM. Representative example of raw Renilla luciferase readings presented in Supplementary Figure 9B. […]
(§2) Supplementary Figure 3: VPC-18005 selectively suppresses ERG-mediated transcriptional activity. […] Data are presented as the mean ± SEM of 4 technical replicates and expressed as luciferase:renilla ratio (activity).
(§3) (B) Luciferase assay was performed on VCaP cells transfected with ETS responsive luciferase reporter and treated with DMSO (0) or 0.1, 1, or 10 nM R1881 in the presence of 25 μM of VPC-18005. Data are presented as the mean ± SEM of 4 technical replicates and expressed as the luciferase:renilla ratio relative to VPC-18005 alone. […]

[1] = Murine pharmacodynamics and toxicology studies; type: in vivo, mice
Protocol: Supplementary Figure 10: (A) In a preliminary study to evaluate in vivo toxicity and establish working oral (PO) doses, Nu/nu mice (n = 4) received a single PO dose of VPC-18005 (100 mg/kg or 500 mg/kg) dissolved in cyclodextrin. Blood was collected directly after injection and at the times indicated. Serum concentration of VPC-18005 was determined for each time point. (B) In a 4 week “repeated dose” study, body weight was measured daily for mice (n = 4) that received a daily dose of VPC-18005 (150 mg/kg BID) dissolved 50% ethanol (PO) or 50% ethanol (Vehicle). Change in weight of each animal was normalized to starting pretreatment weight. (C) Cytotoxicity serum markers of vehicle and VPC-18005 treated animals described in B) were determined and presented as average (Avg. Conc.) and standard deviation (SD) with corresponding paired t-test p values. LC-MS analysis of serum indicators of major organ toxicity (albumin (ALB), alkaline phosphatase (ALP) and alanine aminotransferase (ALT) as indicators of liver dysfunction, amylase (AMY) to test for acute pancreatitis, total bilirubin (TBIL) to assess jaundice, and blood urea nitrogen (BUN) to assess kidney function from endpoint samples

androgen receptor = biological target: T1, androgen receptor (Homo sapiens, UniProt P10275); assay: Androgen receptor luciferase reporter (ARR3tk-luc) assay; type: cell-based; conditions: PC3 cells transfected with AR; 1 nM R1881; 1, 5 or 10 μM
T1 construct: expressed in transfected cells; host or cells: PC3
T1 sequence (P10275 1-920): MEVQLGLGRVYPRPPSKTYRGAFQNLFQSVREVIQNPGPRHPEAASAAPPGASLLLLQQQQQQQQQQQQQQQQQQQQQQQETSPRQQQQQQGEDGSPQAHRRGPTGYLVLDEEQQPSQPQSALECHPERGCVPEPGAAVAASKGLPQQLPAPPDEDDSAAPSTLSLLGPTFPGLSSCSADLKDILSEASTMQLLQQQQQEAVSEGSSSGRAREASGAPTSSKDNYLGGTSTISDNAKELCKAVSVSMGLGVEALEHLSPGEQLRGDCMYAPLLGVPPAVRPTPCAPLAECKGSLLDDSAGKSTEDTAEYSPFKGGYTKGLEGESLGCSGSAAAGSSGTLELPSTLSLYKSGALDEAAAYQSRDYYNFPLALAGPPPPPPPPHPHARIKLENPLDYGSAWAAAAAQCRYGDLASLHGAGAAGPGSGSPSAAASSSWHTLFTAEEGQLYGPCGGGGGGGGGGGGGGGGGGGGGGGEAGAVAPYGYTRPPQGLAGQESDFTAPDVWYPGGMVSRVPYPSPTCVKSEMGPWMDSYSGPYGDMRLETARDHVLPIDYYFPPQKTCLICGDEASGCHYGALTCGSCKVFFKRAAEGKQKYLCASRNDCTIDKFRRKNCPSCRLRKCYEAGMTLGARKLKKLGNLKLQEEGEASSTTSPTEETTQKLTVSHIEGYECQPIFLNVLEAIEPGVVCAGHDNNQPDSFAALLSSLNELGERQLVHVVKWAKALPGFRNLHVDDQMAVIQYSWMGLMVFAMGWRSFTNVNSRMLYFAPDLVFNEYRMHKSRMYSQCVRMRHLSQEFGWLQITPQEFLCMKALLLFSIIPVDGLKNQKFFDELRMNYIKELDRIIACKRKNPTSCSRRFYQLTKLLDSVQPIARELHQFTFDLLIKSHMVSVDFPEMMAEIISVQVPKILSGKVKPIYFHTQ
Protocol: as §1, §2, §3

With `CC(C)c1ccc(C=N/N=C2\NC(=O)[C@@H](CC(=O)O)S2)cc1` (stereo in doubt) [VPC-18005, 2-((Z)-2-(((Z)-4-isopropylbenzylidene)hydrazono)-4-oxothiazolidin-5-yl)acetic acid] the “Impact on the reporter signal in PNT1B-MOCK” value (PNT1B-MOCK cells) was “minimal impact”, the “Solubility, stability and oral bioavailability in mice” value ([1]; Nu/nu mice, PO) was “soluble, stable and orally bioavailable” and the “Serum indicators of major organ toxicity (ALB, ALP, ALT, AMY, TBIL, BUN)” value ([1]; mice, 150 mg/kg BID, 4 weeks, endpoint samples) was “no significant impact”. The “General toxicity, repeated dose” value ([1]; mice, 4 week BID at 150 mg/kg PO) was “does not exhibit general toxicity”, the “General toxicity, single dose” value ([1]; mice, single doses of up to 500 mg/kg PO) was “does not exhibit general toxicity” and the “Effect on androgen receptor luciferase reporter (ARR3tk-luc) expression” value (androgen receptor) was “no significant effect”.
